Each block holds one molecule with its values, some of them ahead of it.
Tests used:
Format in all cases: biochemical
[1] = molecular target: LRRK2 (Homo sapiens, UniProt Q5S007); test: LRRK2 enzyme inhibition, ADP-Glo kinase assay; design: purchased Invitrogen PR8604B; details: ATP 10 μM
Description: To evaluate an inhibitory activity of the compound according to the present invention against LRRK2, LRRK2 (G2019S), DYRK1, CLK1, and TTK kinases, experiments were performed as follows.
Each of the Example compounds was reacted with a purified human LRRK2 (Invitrogen #PR8604B) enzyme to evaluate an ability to inhibit an enzyme using a method as described below. A composition of 40 mM Tris-HCl (pH 7.4), 20 mM MgCl2, 0.5 mg/mL BSA, and 50 μM DTT was used as a reaction buffer, and all reactions of test substances were performed in the reaction buffer. Each of the compounds was diluted […] from a 10 mM DMSO stock using a serial dilution method, and enzyme activities were measured at final compound concentrations of 50, 10, 2, 0.4, 0.08, 0.016, 0.0032, 0.00064, 0.000128, 0.0000256, 0.00000512, and 0.000001024 μM. In the test, purified ATP (10 μM) and an enzyme substrate (0.2 μg) were reacted with a human LRRK2 (25 ng) enzyme at 25° C. for 2 hours, and the enzyme activities were determined using an in vitro ADP-Glo™ kinase assay (Promega). An enzyme-activity reaction solution, an ADP-Glo reaction solution, and an enzyme-ability detection solution were reacted at a ratio of 2:2:1 to measure a degree of inhibition of the enzyme activity with luminescence. The degree of inhibition of the enzyme activity according to the treatment concentration of each of the compounds was calculated based on the fluorescence of the enzyme activity of the solvent control which was not treated with the compound. In this case, the concentration of each of the compounds inhibiting 50% of the enzyme activity was determined to be an IC50 (nM) value, and calculated using Prism (Version 5.01; GraphPad) software.

[2] = molecular target: T1, human GST-DYRK1A (Homo sapiens, UniProt Q13627); test: GST-DYRK1A enzyme inhibition, ADP-Glo kinase assay; details: ATP 10 μM, GST-DYRK1A full length, read-out: DYRK1 IC50
T1 construct: purified human GST-DYRK1A (full length, Thermo Scientifics) enzyme; purchased Thermo Scientifics
Procedure, shortened: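 Full-length human GST-DYRK1A (10 ng) with 10 μM ATP and specific substrate in 40 mM Tris-HCl pH 7.4, 20 mM MgCl2, 0.5 mg/mL BSA, 50 μM DTT, 1 h at 25 °C. ADP formation read by ADP-Glo luminescence relative to solvent control; IC50 from three data sets.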

[3] = molecular target: T2, human GST-CLK1 (Homo sapiens, UniProt P49759); test: GST-CLK1 enzyme inhibition, ADP-Glo kinase assay; details: ATP 10 μM, GST-CLK1 129-end
T2 construct: purified human GST-CLK1 (129-end, SignalChem) enzyme; purchased SignalChem
T2 sequence (P49759 129-484 limits assumed): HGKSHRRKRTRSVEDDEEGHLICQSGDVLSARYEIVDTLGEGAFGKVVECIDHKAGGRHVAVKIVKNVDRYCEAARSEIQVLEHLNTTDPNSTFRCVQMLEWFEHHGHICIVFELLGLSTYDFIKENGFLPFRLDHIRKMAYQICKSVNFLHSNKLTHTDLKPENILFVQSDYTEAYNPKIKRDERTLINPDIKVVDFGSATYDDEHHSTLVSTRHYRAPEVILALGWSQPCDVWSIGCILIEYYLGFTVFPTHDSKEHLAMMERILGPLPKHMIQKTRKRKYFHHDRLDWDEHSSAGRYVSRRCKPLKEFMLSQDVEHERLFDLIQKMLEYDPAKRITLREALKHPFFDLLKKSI
Procedure, shortened: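 Human GST-CLK1 (129-end, 3 ng) reacted with substrate and 10 μM ATP for 1 h at 25° C in 40 mM Tris-HCl pH 7.4, 20 mM MgCl2, 0.5 mg/mL BSA, 50 μM DTT. ADP-Glo luminescence was normalised to solvent control; IC50 (nM) from 3 data sets.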

Sequence of LRRK2 (Q5S007 970-2527 limits assumed): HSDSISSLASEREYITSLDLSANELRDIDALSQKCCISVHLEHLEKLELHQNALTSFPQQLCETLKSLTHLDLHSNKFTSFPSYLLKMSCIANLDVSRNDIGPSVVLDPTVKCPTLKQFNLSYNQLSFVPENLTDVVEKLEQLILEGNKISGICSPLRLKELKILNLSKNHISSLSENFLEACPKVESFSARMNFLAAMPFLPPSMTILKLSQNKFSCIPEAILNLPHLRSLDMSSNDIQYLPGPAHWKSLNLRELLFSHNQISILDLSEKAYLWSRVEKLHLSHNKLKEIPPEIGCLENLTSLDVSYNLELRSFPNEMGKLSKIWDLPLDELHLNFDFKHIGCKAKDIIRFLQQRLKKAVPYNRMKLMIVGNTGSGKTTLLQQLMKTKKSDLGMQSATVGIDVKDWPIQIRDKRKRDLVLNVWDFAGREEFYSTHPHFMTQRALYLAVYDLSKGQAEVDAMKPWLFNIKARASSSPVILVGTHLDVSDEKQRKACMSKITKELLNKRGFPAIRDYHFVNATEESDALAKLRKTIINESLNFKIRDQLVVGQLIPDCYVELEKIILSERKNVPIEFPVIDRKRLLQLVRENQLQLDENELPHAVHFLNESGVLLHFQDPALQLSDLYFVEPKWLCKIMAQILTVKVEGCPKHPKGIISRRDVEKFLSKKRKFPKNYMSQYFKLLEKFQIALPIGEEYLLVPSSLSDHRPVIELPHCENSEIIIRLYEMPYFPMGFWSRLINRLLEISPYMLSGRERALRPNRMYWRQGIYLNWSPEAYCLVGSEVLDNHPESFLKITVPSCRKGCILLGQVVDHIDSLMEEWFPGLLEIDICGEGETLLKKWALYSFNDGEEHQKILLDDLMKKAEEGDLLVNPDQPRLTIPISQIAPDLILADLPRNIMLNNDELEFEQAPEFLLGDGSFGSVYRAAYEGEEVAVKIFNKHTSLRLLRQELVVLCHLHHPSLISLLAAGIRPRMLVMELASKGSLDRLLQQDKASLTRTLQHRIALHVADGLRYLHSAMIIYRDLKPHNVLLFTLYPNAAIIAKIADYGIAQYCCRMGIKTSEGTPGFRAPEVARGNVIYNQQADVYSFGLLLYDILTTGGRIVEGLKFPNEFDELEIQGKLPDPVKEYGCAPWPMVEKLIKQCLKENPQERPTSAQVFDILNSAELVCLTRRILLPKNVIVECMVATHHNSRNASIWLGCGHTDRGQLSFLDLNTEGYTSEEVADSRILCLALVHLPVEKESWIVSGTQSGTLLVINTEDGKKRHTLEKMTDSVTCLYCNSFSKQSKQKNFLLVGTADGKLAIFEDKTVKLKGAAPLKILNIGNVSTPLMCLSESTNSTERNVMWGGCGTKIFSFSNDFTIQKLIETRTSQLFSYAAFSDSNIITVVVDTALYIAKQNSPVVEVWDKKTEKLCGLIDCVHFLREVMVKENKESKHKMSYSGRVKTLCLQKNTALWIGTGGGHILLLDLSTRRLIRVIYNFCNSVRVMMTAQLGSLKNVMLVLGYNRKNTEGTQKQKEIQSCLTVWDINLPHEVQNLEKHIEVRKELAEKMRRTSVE

Compound: CNc1nc(Nc2ccc(P3(=O)CCN(C4CCOCC4)CC3)cc2OC)nc2[nH]cc(C(F)(F)F)c12 [Example 436, 4-(3-methoxy-4-((4-(methylamino)-5-(trifluoromethyl)-7H-pyrrolo[2,3-d]pyrimidin-2-yl)amino)phenyl)-1-(tetrahydro-2H-pyran-4-yl)-1,4-azaphosphinane 4-oxide]
IC50 [1]: < 100 nM
IC50 [2]: < 100 nM
IC50 [3]: < 100 nM

Compound: CCCNc1nc(Nc2ccc(P3(=O)CCN(C4CC4)CC3)cc2OC)nc2[nH]cc(C(F)(F)F)c12 [Example 401, 1-cyclopropyl-4-(3-methoxy-4-((4-(propylamino)-5-(trifluoromethyl)-7H-pyrrolo[2,3-d]pyrimidin-2-yl)amino)phenyl)-1,4-azaphosphinane 4-oxide]
IC50 [1]: < 100 nM
IC50 [2]: 301 to 1000 nM
IC50 [3]: 101 to 300 nM

Compound: COc1cc(S(C)(=O)=O)ccc1Nc1nc(C2CC2)c2c(C#N)c[nH]c2n1 [Example 222, 4-cyclopropyl-2-((2-methoxy-4-(methylsulfonyl)phenyl)amino)-7H-pyrrolo[2,3-d]pyrimidine-5-carbonitrile]
IC50 [1]: < 100 nM
IC50 [2]: 301 to 1000 nM
IC50 [3]: 301 to 1000 nM

Compound: CCNc1nc(Nc2ccc(P3(=O)CCN(C4COC4)CC3)cc2OC)nc2[nH]cc(C(F)(F)F)c12 [Example 399, 4-(4-((4-(ethylamino)-5-(trifluoromethyl)-7H-pyrrolo[2,3-d]pyrimidin-2-yl)amino)-3-methoxyphenyl)-1-(oxetan-3-yl)-1,4-azaphosphinane 4-oxide]
IC50 [1]: < 100 nM
IC50 [2]: < 100 nM
IC50 [3]: < 100 nM

Compound: CC[C@@H](C)Nc1nc(Nc2ccc(S(C)(=O)=O)cc2OC)nc2[nH]cc(C(F)(F)F)c12 [Example 173, (R)-N^4-(sec-butyl)-N^2-(2-methoxy-4-(methyslulfonyl)phenyl)-5-(trifluoromethyl)-7H-pyrrolo[2,3-d]pyrimidine-2,4-diamine]
IC50 [1]: < 100 nM
IC50 [2]: 301 to 1000 nM
IC50 [3]: 301 to 1000 nM

Compound: COc1cc(S(C)(=O)=O)ccc1Nc1nc(NC2CCCC2)c2c(C(F)(F)F)c[nH]c2n1 [Example 188, N^4-cyclopentyl-N^2-(2-methoxy-4-(methylsulfonyl)phenyl)-5-(trifluoromethyl)-7H-pyrrolo[2,3-d]pyrimidine-2,4-diamine]
IC50 [1]: 301 to 1000 nM
IC50 [2]: 301 to 1000 nM
IC50 [3]: 301 to 1000 nM

Compound: C=CCNc1nc(Nc2ccc(S(=O)(=O)N3CCOCC3)cc2OC)nc2[nH]cc(C(F)(F)F)c12 [Example 474, N^4-allyl-N^2-(2-methoxy-4-(morpholino-sulfonyl)phenyl)-5-(trifluoromethyl)-7H-pyrrolo[2,3-d]pyrimidine-2,4-diamine]
IC50 [1]: 301 to 1000 nM
IC50 [2]: 301 to 1000 nM
IC50 [3]: 301 to 1000 nM

Compound: COCC(C)(C)Nc1nc(Nc2ccc(S(C)(=O)=O)cc2OC)nc2[nH]cc(C#N)c12 [Example 111, 4-((1-methoxy-2-methylpropan-2-yl)amino)-2-((2-methoxy-4-(methylsulfonyl)phenyl)amino)-7H-pyrrolo[2,3-d]pyrimdiine-5-carobnitrile]
IC50 [1]: < 100 nM
IC50 [2]: 301 to 1000 nM
IC50 [3]: 301 to 1000 nM

More lines, now with the values ahead:

IC50 [1]: < 100 nM
IC50 [2]: 101 to 300 nM
IC50 [3]: 101 to 300 nM
Compound: CCNc1nc(Nc2ccc(P3(=O)CCN(CC)CC3)cc2OC)nc2[nH]cc(C#N)c12 [Example 260, 2-((4-(1-ethyl-4-oxido-1,4-azaphosphinan-4-yl)-2-methoxyphenyl)amino)-4-(ethylamino)-7H-pyrrolo[2,3-d]pyrimidine-5-carbonitrile]

IC50 [1]: < 100 nM
IC50 [2]: 301 to 1000 nM
IC50 [3]: 301 to 1000 nM
Compound: CC(C)CNc1nc(Nc2ccc(C(=O)N3CCOCC3)c3c2OCCO3)nc2[nH]cc(C(F)(F)F)c12 [Example 169, (8-((4-(isobutylamino)-5-(trifluoromethyl)-7H-pyrrolo[2,3-d]pyrimidin-2-yl)amino)-2,3-dihydrobenzo[b][1,4]dioxin-5-yl)(morpholino)methanone]

IC50 [1]: < 100 nM
IC50 [2]: 301 to 1000 nM
IC50 [3]: 301 to 1000 nM
Compound: N#Cc1c[nH]c2nc(Nc3ccc(C(=O)N4CCOCC4)c4c3OCCO4)nc(NCC3CCC3)c12 [Example 132, 4-((cyclobutylmethyl)amino)-2-((8-(morpholine-4-carbonyl)-2,3-dihydrobenzo[b][1,4]dioxin-5-yl)amino)-7H-pyrrolo[2,3-d]pyrimidine-5-carbonitrile]

IC50 [1]: < 100 nM
IC50 [2]: < 100 nM
IC50 [3]: < 100 nM
Compound: CCNc1nc(Nc2ccc(C(=O)N3C[C@@H]4C[C@H]3CO4)c3c2OCCO3)nc2[nH]cc(C(F)(F)F)c12 [Example 409]

IC50 [1]: < 100 nM
IC50 [2]: 301 to 1000 nM
IC50 [3]: 301 to 1000 nM
Compound: CCNc1nc(Nc2ccc(C(=O)N3CCOCC3)c3c2OCO3)nc2[nH]cc(C#N)c12 [Example 277, 4-(ethylamino)-2-((7-(morpholine-4-carbonyl)benzo[d][1,3]dioxol-4-yl)amino)-7H-pyrrolo[2,3-d]pyrimidine-5-carbonitrile]

IC50 [1]: < 100 nM
IC50 [2]: < 100 nM
IC50 [3]: < 100 nM
Compound: COCCNc1nc(Nc2ccc(C(=O)N3CCC(N4CCOCC4)CC3)c3c2OCCO3)nc2[nH]cc(C#N)c12 [Example 256, 4-((2-methoxyethyl)amino)-2-((8-(4-morpholinopiperidine-1-carbonyl)-2,3-dihydrobenzo[b][1,4]dioxin-5-yl)amino)-7H-pyrrolo[2,3-d]pyrimidine-5-carbonitrile]

IC50 [1]: < 100 nM
IC50 [2]: 301 to 1000 nM
IC50 [3]: < 100 nM
Compound: COCC(C)(C)Nc1nc(Nc2ccc(C(=O)N3CCOCC3)c3c2OCCO3)nc2[nH]cc(C#N)c12 [Example 131, 4-((1-methoxy-2-methylpropan-2-yl)amino)-2-((8-(morpholine-4-carbonyl)-2,3-dihydrobenzo[b][1,4]dioxin-5-yl)amino)-7H-pyrrolo[2,3-d]pyrimidine-5-carbonitrile]

IC50 [1]: < 100 nM
IC50 [2]: 101 to 300 nM
IC50 [3]: 101 to 300 nM
Compound: CNc1nc(Nc2ccc(C(=O)N3CCC(N4CCOCC4)CC3)c3c2OCO3)nc2[nH]cc(C(F)(F)F)c12 [Example 215, (7-((4-(methylamino)-5-(trifluoromethyl)-7H-pyrrolo[2,3-d]pyrimidin-2-yl)amino)benzo[d][1,3]dioxol-4-yl)(4-morpholinopiperidin-1-yl)methanone]

IC50 [1]: < 100 nM
IC50 [2]: 301 to 1000 nM
IC50 [3]: < 100 nM
Compound: CC(C)Nc1nc(Nc2ccc(C(=O)N3CCC(N4CCOCC4)CC3)c3c2OCCO3)nc2[nH]cc(C#N)c12 [Example 140, 4-(isopropylamino)-2-((8-(4-morpholinopiperidine-1-carbonyl)-2,3-dihydrobenzo[b][1,4]dioxin-5-yl)amino)-7H-pyrrolo[2,3-d]pyrimidine-5-carbonitrile]

IC50 [1]: < 100 nM
IC50 [2]: 301 to 1000 nM
IC50 [3]: 301 to 1000 nM
Compound: O=C(c1ccc(Nc2nc(NC3CCCCC3)c3c(C(F)(F)F)c[nH]c3n2)c2c1CCO2)N1CCC(N2CCOCC2)CC1 [Example 460, (7-((4-(cyclo-hexylamino)-5-(trifluoromethyl)-7H-pyrrolo[2,3-d]pyrimidin-2-yl)amino)-2,3-dihydrobenzo-furan-4-yl)(4-morpho-linopiperidin-1-yl)methanone]

IC50 [1]: < 100 nM
IC50 [2]: 101 to 300 nM
IC50 [3]: < 100 nM
Compound: CC[C@H](C)Nc1nc(Nc2ccc(C(=O)N3CCC(N4CCOCC4)CC3)c3c2OCC3)nc2[nH]cc(C(F)(F)F)c12 [Example 452, (S)-(7-((4-(sec-butylamino)-5-(trifluoromethyl)-7H-pyrrolo[2,3-d]pyrimidin-2-yl)amino)-2,3-dihydrobenzo-furan-4-yl)(4-morpho-linopiperidin-1-yl)methanone]

Reference: US20230066011A1, “PYRROLOPYRIMIDINE DERIVATIVE, AND PHARMACEUTICAL COMPOSITION FOR PREVENTING OR TREATING PROTEIN KINASE-RELATED DISEASE COMPRISING SAME AS ACTIVE INGREDIENT” (VORONOI CO., LTD., priority 2019, published 2023)
